# Experimental data published in patent publication US20130302409A1, “METHODS AND COMPOSITIONS FOR CANCER IMMUNOTHERAPY” (priority 2010, published 2013).
# Test system: 4T1 tumor (highly metastatic, syngeneic mammary cancer cell line)
# Experiment: Survival of tumor-bearing mice after cyclophosphamide, intratumoral nanoparticles and cryoablation or resection
# Format: in vivo, BALB/c mice
# Details: Cy 200 mg/kg intraperitoneally day 14 plus cryoablation day 16, compared with Cy plus surgical resection of the subcutaneous nodule; FIG. 3A
# Experimental: The particles are suspended with a pipette for about one minute. […] The particles in PBS should not be used if kept for more than 12 hours. The particles are lightly sonicated with a bath sonicator, or vortexed to make an even suspension. The particles should not sit idly in the syringe as they will settle and then clog the syringe. Ideally, the injection should be made within 10-30 seconds after drawing the well-mixed nanoparticle suspension into the syringe. For mice with a tumor of 5-8 mm diameter, 100 mg of particles is injected directly into the tumor in a volume of 0.1 ml.
# Groups of 10 BALB/c mice each received a subcutaneous inoculation of 10^4 cells of the highly metastatic, syngeneic mammary cancer cell line on the flank.
smiles,measurement,value
O=P1(N(CCCl)CCCl)NCCCO1 (stereo not shown) [cyclophosphamide],survival,did not survive significantly longer
